Columns and labels:
Adenosine receptor A2a = Adenosine receptor A2a (Homo sapiens, UniProt P29274); assay: ADORA1A Receptor Binding Assay
Method: 2 L of each compound (test compounds, high control compound, low control compound) was transferred into individual wells of an assay plate. Also, to each individual well, 98 µL of Adenosine A1a membrane stock (for ADORA1A Receptor Binding Assay) or Adenosine A2a membrane stock (for ADORA2A Receptor Binding Assay) was dispensed, followed by 100 L of radio-labeled ligand. Plates were then sealed and incubated at room temperature for 1 hour (for ADORA1A Receptor Binding Assay) or 2 hours (for ADORA2A Receptor Binding Assay). Unifilter-96 GF/C filter plates were pre-soaked with 50 µL of 0.3% PEI per well for at least 30 min at room temperature. When binding assays were completed, reaction mixtures were filtered through GF/C plates using a Perkin Elmer Filtermate Harvester, and then each plate was washed 4 with cold wash buffer. Filter plates were then dried for 1 hour at 50 ° C. After drying, the bottom of the filter plate wells was sealed using Perkin Elmer Unifilter-96 backing seal tape. […] 3H trapped on the filter was counted using a Perkin Elmer MicroBeta2 Reader. Data analysis was performed using GraphPad Prism 5 software, and the Inhibition [% Control] was calculated using the following equation: % Inh=(1 Background subtracted Assay value/Background subtracted HC value) *100.

Adenosine receptor A2b = molecular target: T1, Adenosine receptor A2b (Homo sapiens, UniProt P29275); assay: ADORA2B Receptor Binding Assay
T1 sequence (P29275 whole entry): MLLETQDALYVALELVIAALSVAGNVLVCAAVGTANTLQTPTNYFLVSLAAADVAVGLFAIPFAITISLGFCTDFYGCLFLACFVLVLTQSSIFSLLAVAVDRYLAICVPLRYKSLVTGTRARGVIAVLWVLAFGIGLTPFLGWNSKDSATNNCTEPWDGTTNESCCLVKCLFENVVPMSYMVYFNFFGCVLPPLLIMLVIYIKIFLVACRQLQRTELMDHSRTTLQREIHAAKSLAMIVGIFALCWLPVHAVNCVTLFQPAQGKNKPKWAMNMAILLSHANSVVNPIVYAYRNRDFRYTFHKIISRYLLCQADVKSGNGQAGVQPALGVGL
Method: 100 μL of Adenosine A2B membrane stock was dispensed into individual wells of an assay plate. 1 μL of each compound (test compounds, high control compound, low control compound) was then transferred into individual wells, followed by 100 μL of radio-labeled ligand. Plates were then sealed, and incubated at room temperature for 1 hour. Unifilter-96 GF/C filter plates were pre-soaked with 50 μL of 0.5% BSA per well for at least 30 min at room temperature. When binding assays were completed, reaction mixtures were filtered through GF/C plates using a Perkin Elmer Filtermate Harvester, and then each plate was washed 4× with cold wash buffer. Filter plates were then dried for 1 hour at 50° C. After drying, the bottom of the filter plate wells was sealed using Perkin Elmer Unifilter-96 backing seal tape. 50 μL of Perkin Elmer Microscint 20 cocktail was then added, and the top of the filter plate was then sealed using Perkin Elmer TopSeal-A sealing film. 3H trapped on the filter was counted using a Perkin Elmer MicroBeta2 Reader. Data analysis was performed using GraphPad Prism 5 software, and the Inhibition [% Control] was calculated using the following equation: % Inh=(1−Background subtracted Assay value/Background subtracted HC value) *100.

Adenosine receptor A2a, sequence (P29274 whole entry): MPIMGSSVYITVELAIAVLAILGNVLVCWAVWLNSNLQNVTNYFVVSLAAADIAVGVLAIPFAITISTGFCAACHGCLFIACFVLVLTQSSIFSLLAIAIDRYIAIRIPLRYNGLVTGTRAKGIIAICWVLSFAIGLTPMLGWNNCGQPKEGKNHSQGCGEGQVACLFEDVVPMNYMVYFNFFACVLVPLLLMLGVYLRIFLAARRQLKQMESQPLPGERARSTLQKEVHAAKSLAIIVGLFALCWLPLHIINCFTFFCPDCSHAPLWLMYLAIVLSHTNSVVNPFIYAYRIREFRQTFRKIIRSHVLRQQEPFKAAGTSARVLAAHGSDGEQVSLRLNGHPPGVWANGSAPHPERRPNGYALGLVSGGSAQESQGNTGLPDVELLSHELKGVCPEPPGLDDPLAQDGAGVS

Row | IC50 (Adenosine receptor A2a) | IC50 (Adenosine receptor A2b) | SMILES
1 | < 10 nM | < 10 nM | Cc1ccc(-c2nc(N)c(C#N)c3nc(C(F)(F)F)nn23)o1 [US11718622, Compound 46]
2 | < 10 nM | < 10 nM | Nc1nc2c(-c3ccco3)nc(NC(=O)C3CC3)cn2n1 [US11718622, Compound 186]

Reference: BindingDB's records for patent US11718622 (Exelixis, 2023)
